Assay results reported in patent US20060178307A1, “Modulation of NMDA receptor currents via orexin receptor and/or CRF receptor” (priority 2005, published 2006).
Where no end group is shown, it is not given here.

Key:
locomotor activity = assay: Locomotor sensitization to cocaine, intra-VTA OXR1 antagonist, 7-day paradigm; type: in vivo, Sprague-Dawley rats
Description: Male Sprague-Dawley rats (250 grams) were implanted with bilateral cannulae directed at the VTA (AP, −5.2; ML, ±0.5, DV −8.0). Following recovery from surgery, animals were tested in a cocaine sensitization assay similar to that used for systemic administration of the OXR1 antagonist, but with two changes: a 7-day sensitization paradigm was used, and the OXR1 antagonist SB 334867 was microinjected directly into the VTA (6 μg/hemisphere in 300 nL solution composed of 10% DMSO in water). All other methods for habituation and data collection were identical to that described above. Rats were deeply anesthetized with pentobarbital, and perfused with a 10% formaldehyde solution. Brains were cryoprotected in 25% sucrose, 40 μm coronal sections were cut on a freezing microtome, and sections were mounted, dried and coverslipped. Injection sites were located under a light microscope and recorded on atlas figures adapted from Paxinos and Watson (1997).

[1] = system: AMPAR/NMDAR ratio of EPSCs in VTA dopamine cells; assay: AMPAR/NMDAR ratio after 5-min bath application to VTA slices; type: cell-based, rat; conditions: orexin A 100 nM 5 min, n=8
Description: The next study investigated whether orexin signaling in the VTA is required for the long-term plasticity associated with the development of behavioral sensitization. Long-term synaptic plasticity at excitatory synapses on VTA neurons was examined 24 hr after a 5-day treatment of cocaine (15 mg/kg) or saline (0.9%), a time course shown to induce long-lasting locomotor sensitization to cocaine (Thomas et al., 2001), with or without the OXR1 antagonist, SB 334867 (10 mg/kg, FIG. 5). To assay for synaptic plasticity, the relative contributions of AMPARs and NMDARs to EPSCs recorded in VTA dopamine cells were compared. Consistent with the potentiation observed following acute and 7-day cocaine treatments (Borgland et al., 2004), 5-day treatment with cocaine potentiated the AMPAR/NMDAR ratio compared to saline controls (FIG. 5A, saline: 0.4±0.07, n=4; cocaine: 0.8±0.1, n=4, p<0.05). […]
To calculate the AMPAR/NMDAR ratio, an average of 12 EPSCs at +40 mV was computed before and after application of the NMDAR blocker, AP5 (50 μM) for 5 min. NMDAR responses were calculated by subtracting the average response in the presence of AP5 (AMPAR only) from that seen in its absence; the peak of the AMPAR EPSC was divided by the peak of the NMDAR EPSC to yield an AMPAR/NMDAR ratio.

AMPAR-induced current = assay: Holding current change on bath-applied AMPA with cyclothiazide; type: cell-based, rat
NMDAR mEPSCs = NMDAR mEPSCs in Mg2+-free buffer at −40 mV; type: cell-based, rat
Description: To examine changes in number or function of NMDARs after orexin treatment NMDAR mEPSCs were recorded in buffer without Mg^2+, and in the presence CNQX (10 μM), glycine (20 μM) and lidocaine (500 μM). Orexin A (100 nM) caused a significant increase in amplitude in NMDAR mEPSCs 15 min after application (17.1±0.7 pA, n=8, FIG. 7B,D,F) compared to untreated neurons (14.2±0.9 pA, n=8, FIG. 7A,D,F) or at 3-4 hours after orexin A application (13.9±0.5 pA, n=7, FIG. 7C,D,F).
AMPAR mEPSCs were recorded in cells voltage-clamped at −70 mV in lidocaine (500 μM), APV (50 μM) and sucrose (100 mM). NMDAR mEPSCs were recorded at −40 mV in Mg2+-free external solution with lidocaine (500 μM), glycine (20 μM), and CNQX (10 μM). mEPSCs were collected using Clampex (Axon Instruments) and analyzed using Mini Analysis Program (Synaptosoft). Detection criteria were set at >10 pA, <1 ms rise-time, and <3 ms decay-time for AMPAR mEPSCs and >10 pA, <1 ms rise-time, and <10 ms decay-time for NMDAR mEPSCs. mEPSC traces were recorded while sampling every 10 μs, the images were filtered at 5 kHz. Averaged mEPSCs were constructed using Mini Analysis Program (Synaptosoft).

## Cc1nc2ccc(NC(=O)Nc3ccnc4cccnc34)cc2o1.Cl [SB 334867, 1-(2-methylbenzoxazol-6-yl)-3-[1,5]naphthyridin-4-yl urea hydrochloride]
Locomotor activity; daily intra-VTA 6 μg/hemisphere prior to cocaine 15 mg/kg, 7 days
  development of locomotor sensitization to cocaine: abolished
Locomotor activity; intra-VTA OXR1 antagonist 6 μg/hemisphere + cocaine
  mean locomotor distance on day 7: 19274±4559 cm
Locomotor activity; single intra-VTA injection
  expression of pre-existing cocaine sensitization: did not affect

## orexin A: neuropeptide synthesized in neurons of the LH; orexin receptor agonist selective for the OXR1 receptor (QPLPDCCRQKTCSCRLYELLHGAGNHAAGILTL; ends and bridges not checked; cysteine pairing not given here; UniProt O43612 34-66, looked up)
[1]; 15 min after treatment
  AMPAR/NMDAR ratio: 0.29±0.04
[1]; after 3-4 hours
  AMPAR/NMDAR ratio: 0.75±0.1
AMPAR-induced current; AMPA 2 μM 30 sec + cyclothiazide 100 μM, 15 min after orexin A 100 nM, n=5
  AMPAR-induced current: −243±79 pA
AMPAR-induced current; AMPA 2 μM + cyclothiazide, 3-4 hours after orexin A 100 nM, n=6
  AMPAR-induced current: −367±63 pA
NMDAR mEPSCs; 3-4 hours after orexin A
  frequency of NMDAR mEPSCs: 2.5±0.4
NMDAR mEPSCs; 3-4 hours after orexin A, n=7
  NMDAR mEPSC amplitude: 13.9±0.5 pA
NMDAR mEPSCs; 15 min after orexin A
  frequency of NMDAR mEPSCs: 2.1±0.3
NMDAR mEPSCs; 15 min after orexin A 100 nM, n=8
  NMDAR mEPSC amplitude: 17.1±0.7 pA
